The results in this text go back to US20050054559A1, “Compounds for sustained release of orally delivered drugs” (priority 2000, published 2005).

This experiment concerns the target T1, LBAT (Homo sapiens, UniProt Q14973).
T1 construct: expressed in transfected cells; host or cells: CHO cells
The experiment in a line: Inhibition of radiolabeled taurocholate uptake in LBAT-transfected CHO cells. In kind it is cell-based. The note with it: radiolabeled competition assay in transporter-expressing CHO cells. The procedure:
CHO cells transfected with either the IBAT or LBAT transporter were seeded into 96-well microtiter plates at 100,000 cells/well in 100 μL DMEM containing 10% serum, glutamine and Penstrep. After overnight incubation the media was removed and test compound (25 μL) added at 2× the final desired concentration. Tritiated taurocholate (50,000 CPM/well) was diluted with cold substrate to a final concentration of 5 μM and 25 μL/well of this mixture was added to the plate. After incubating for 1 h at room temperature the solution was removed and the plate washed 4× with PBS at 4° C. 200 μL/well of scintillant is added and the plate then read in a Wallac microbeta counter. The inhibition data is processed by standard methods to calculate an inhibition constant Ki for the test compound.

SMILES strings stand for the structures.

T1 sequence (Q14973 whole entry): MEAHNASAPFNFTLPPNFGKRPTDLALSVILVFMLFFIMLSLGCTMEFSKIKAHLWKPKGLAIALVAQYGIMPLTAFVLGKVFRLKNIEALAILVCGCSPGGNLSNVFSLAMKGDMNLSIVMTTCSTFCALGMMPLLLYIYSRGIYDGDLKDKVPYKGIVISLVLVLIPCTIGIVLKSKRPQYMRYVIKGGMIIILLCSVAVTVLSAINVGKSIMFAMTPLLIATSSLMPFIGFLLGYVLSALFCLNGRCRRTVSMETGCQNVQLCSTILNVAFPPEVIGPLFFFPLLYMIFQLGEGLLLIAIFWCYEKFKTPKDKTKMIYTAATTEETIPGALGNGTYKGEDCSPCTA

What is called IC50 is the concentration at which inhibition is half-maximal. Lower therefore signals inhibition by little substance. `CC(CCC(=O)NCC1(CC(=O)O)CCCCC1)C1CCC2C3C(O)CC4CC(O)CCC4(C)C3CC(O)C12C` (stereo not shown) [Compound (4)]: the IC50 was found to be 8 µM.
